PMC4589873, “A pain-inducing centipede toxin targets the heat activation machinery of nociceptor TRPV1” (Nature Communications, 2015)

Key:
Trpv1−/− knockout mice = assay: Paw-licking assay in TRPV1 knockout mice; assay type: in vivo, mouse; conditions: intraplantar, 1 μmol per paw
Method: In vivo effects of RhTx on WT mice or Trpv1^−/− mice were examined according to protocols described previously. For the paw-licking assay, pain was induced in mice by intraplantar injection of 0.1% formalin, capsaicin (1 μmol per paw) or RhTx (1 μmol per paw). Each of the testing materials was dissolved in 100 μl saline. Control mice received the same volume of saline. Injected mice were placed individually into open polyvinyl cages (20 × 40 × 15 cm). Time spent licking the injected paw was recorded by a digital video camera during the following 40 min. For recording colonic temperature from WT or Trpv1^−/− mice, mice equipped with a copper-constantan thermocouple were individually placed in open polyvinyl cages. A data logger was connected to the thermocouple. Mice were injected intraperitoneally with 100 μl saline containing capsaicin or RhTx. The dose of capsaicin or RhTx was 10 μmol kg^−1 for these experiments. Mice in the control group received the same volume of saline.

mTRPV1 = target: T1, mTRPV1 (Mus musculus, UniProt Q704Y3); assay: Whole-cell patch-clamp of mTRPV1 expressed in HEK293 cells; assay type: cell-based; conditions: SEM
T1 construct: expressed in transfected cells; host or cells: HEK-293T
T1 sequence (Q704Y3 whole entry): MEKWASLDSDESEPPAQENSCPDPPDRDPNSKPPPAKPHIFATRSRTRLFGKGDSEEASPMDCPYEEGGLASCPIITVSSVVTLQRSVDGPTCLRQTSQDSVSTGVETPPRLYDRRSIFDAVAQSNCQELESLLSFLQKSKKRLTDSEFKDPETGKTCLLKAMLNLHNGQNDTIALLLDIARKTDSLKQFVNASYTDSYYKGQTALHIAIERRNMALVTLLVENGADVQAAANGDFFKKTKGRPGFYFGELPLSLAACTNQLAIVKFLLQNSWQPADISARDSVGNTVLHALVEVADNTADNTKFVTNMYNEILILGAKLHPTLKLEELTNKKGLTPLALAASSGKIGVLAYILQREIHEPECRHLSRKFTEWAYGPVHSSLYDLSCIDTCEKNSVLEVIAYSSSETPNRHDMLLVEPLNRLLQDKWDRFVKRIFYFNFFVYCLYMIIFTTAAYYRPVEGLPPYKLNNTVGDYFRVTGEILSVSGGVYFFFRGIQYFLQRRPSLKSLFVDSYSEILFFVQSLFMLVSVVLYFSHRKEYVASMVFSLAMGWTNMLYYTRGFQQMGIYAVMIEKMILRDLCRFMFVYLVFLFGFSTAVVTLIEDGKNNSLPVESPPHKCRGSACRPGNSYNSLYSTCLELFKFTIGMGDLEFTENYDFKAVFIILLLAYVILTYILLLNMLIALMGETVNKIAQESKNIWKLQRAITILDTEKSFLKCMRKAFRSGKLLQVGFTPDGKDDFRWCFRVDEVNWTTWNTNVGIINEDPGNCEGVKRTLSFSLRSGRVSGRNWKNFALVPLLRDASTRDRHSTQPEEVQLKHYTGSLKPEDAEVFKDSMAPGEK
Source text: (§1) TRPV1 and TRPV3 chimeras used in this study were generated by the overlapping extension method[54] and confirmed by DNA sequencing, as described previously. Briefly, to generate V1/3S, the primer pairs (5′-[…]-3′and 5′-[…]-3′) were used. To generate other TRPV1/TRPV3 chimeras, the enzyme cutting sites by MluI were made by the primer pair (5′-[…]-3′ and 5′-[…]-3′) for TRPV1 and the primer pair (5′-[…]-3′ and 5′-[…]-3′) for TRPV3. The enzyme cutting sites by PvuI were made by the primer pair (5′-[…]-3′ and 5′-[…]-3′) for TRPV1 and the primer pair (5′-[…]-3′ and 5′-[…]-3′) for TRPV3. The enzyme cutting sites by BsiWI were made by the primer pair (5′-[…]-3′ and 5′-[…]-3′) for TRPV1 and the primer pair (5′-[…]-3′ and 5′-[…]-3′) for TRPV3. V1/3M were generated by enzyme cut and paste between MluI and PvuI sites, while V1/3L were generated by enzyme cut and paste between MluI and BsiWI sites. V1_S1S2_1, V1_S1S2_3 and V1_S1S2_3 were generated as previously reported. All mTRPV1 point mutations were constructed using the QuickChange II XL site-directed mutagenesis kit following the manufacturer’s instruction. These point mutations were sequenced to confirm that appropriate constructs were made. HEK-293T cells were cultured and transiently transfected using Lipofectamine 2,000 (Invitrogen) as previously described.
(§2) As described in details in a previous report, macroscopic currents (in whole-cell, inside-out or outside-out configuration) as well as single-channel currents were recorded using a HEKA EPC10 amplifier with the PatchMaster software (HEKA). Both pipette solution and bath solution contained 130 mM NaCl, 3 mM HEPES and 0.2 mM EDTA (pH 7.2). All recordings were performed at room temperature unless otherwise stated. A holding potential of 0 mV was used from which a testing pulse to +80 mV was applied. Statistical difference was determined using the Student’s t-test, and indicated by ** when reaching the significance level P<0.001.

TRPV1 = assay: Cooling of RhTx- or capsaicin-induced channel activation; assay type: cell-based; conditions: RhTx at 1 μM
Method: as §2

[1] = test system: mTRPV1 point mutants at D602, Y632, T634 and L461; assay: Whole-cell current of mTRPV1 point mutants; assay type: cell-based, mouse; conditions: glycine or alanine mutation, both at 10 μM, +80 mV
Source text: as §1, with “All mTRPV1 point mutations were constructed using the QuickChange II XL site-directed mutagenesis kit following the manufacturer’s instruction. These point mutations were sequenced to confirm that appropriate constructs were made. HEK-293T cells were cultured and transiently transfected using Lipofectamine 2,000 (Invitrogen) as previously described.” left out
As described in details in a previous report, macroscopic currents (in whole-cell, inside-out or outside-out configuration) as well as single-channel currents were recorded using a HEKA EPC10 amplifier with the PatchMaster software (HEKA). […] Statistical difference was determined using the Student’s t-test, and indicated by ** when reaching the significance level P<0.001.

[2] = test system: mTRPV1 point mutants at D602, Y632, T634 and L461; assay: Calcium imaging of mTRPV1 point mutants; assay type: cell-based, mouse; conditions: glycine or alanine mutation; 10 μM RhTx, 10 μM capsaicin
Source text: TRPV1 and TRPV3 chimeras used in this study were generated by the overlapping extension method[54] and confirmed by DNA sequencing, as described previously. Briefly, to generate V1/3S, the primer pairs (5′-[…]-3′and 5′-[…]-3′) were used. To generate other TRPV1/TRPV3 chimeras, the enzyme cutting sites by MluI were made by the primer pair (5′-[…]-3′ and 5′-[…]-3′) for TRPV1 and the primer pair (5′-[…]-3′ and 5′-[…]-3′) for TRPV3. The enzyme cutting sites by PvuI were made by the primer pair (5′-[…]-3′ and 5′-[…]-3′) for TRPV1 and the primer pair (5′-[…]-3′ and 5′-[…]-3′) for TRPV3. The enzyme cutting sites by BsiWI were made by the primer pair (5′-[…]-3′ and 5′-[…]-3′) for TRPV1 and the primer pair (5′-[…]-3′ and 5′-[…]-3′) for TRPV3. […]
Mouse DRG neurons were acutely dissociated and maintained in a short-term primary culture according to procedures as previous descripted. […] Fluorescence images of DRG neurons and HEK-293T cells were acquired with an Olympus IX81 microscope with Hamamatsu C4742 charge-coupled device camera controlled by the MetaFluor Software (Molecular Devices). Fluo-4 was excited by a mercury vapour light source with a 500/20-nm excitation filter, while fluorescence emission was detected with a 535/30-nm emission filter. Fluorescence images were required with automated routines written in MetaMorph software (Molecular Devices) and analysed with Igor Pro (Wavemetrics).

COc1cc(CNC(=O)CCCC/C=C/C(C)C)ccc1O [capsaicin, reference compound]
pain behaviour (paw licking) in knockout mice (Trpv1−/− knockout mice): ineffective | EC50 (mTRPV1): 214 ± 20.6 nM | Hill slope (mTRPV1): 1.36±0.18 | effect of lowering the experimental temperature on agonist-induced channel activation (TRPV1): could not prevent | agonist-induced current in point mutants versus WT channel [1]: sparing | agonist-induced intracellular calcium increase in point mutants versus WT channel [2]: sparing
